Measured values reported in PubChem BioAssay (NCI).
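The compound was tested at five concentrations on cells cultured in 96-well plates, with a 48-hour exposure period. GI50 marks 50% less growth. TGI: concentration producing complete growth inhibition.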

Experiments:
Assay in all cases: NCI anticancer screen, dose series, 48 h
[1] = system: 786-0 renal
[2] = system: A498 renal
[3] = system: A549 NSCLC
[4] = system: ACHN renal
[5] = system: CAKI-1 renal
[6] = system: CCRF-CEM leukemia
[7] = system: COLO 205 colon
[8] = system: DU-145 prostate
[9] = system: EKVX NSCLC
[10] = system: HCC-2998 colon
[11] = system: HCT-116 colon
[12] = system: HCT-15 colon
[13] = system: HL-60(TB) leukemia
[14] = system: HOP-62 NSCLC
[15] = system: HOP-92 NSCLC
[16] = system: HS 578T breast
[17] = system: HT29 colon
[18] = system: IGROV1 ovarian
[19] = system: K-562 leukemia
[20] = system: KM12 colon
[21] = system: LOX IMVI melanoma
[22] = system: M14 melanoma
[23] = system: MALME-3M melanoma
[24] = system: MCF7 breast
[25] = system: MDA-MB-231 breast
[26] = system: MDA-MB-435
[27] = system: MOLT-4 leukemia
[28] = system: NCI-H226 lung
[29] = system: NCI-H23 lung
[30] = system: NCI-H460 lung
[31] = system: NCI-H522 lung
[32] = system: NCI/ADR-RES ovarian
[33] = system: OVCAR-3 ovarian
[34] = system: OVCAR-4 ovarian
[35] = system: OVCAR-5 ovarian
[36] = system: OVCAR-8 ovarian
[37] = system: PC-3 prostate
[38] = system: RPMI-8226 leukemia
[39] = system: RXF 393 renal
[40] = system: SF-268 CNS
[41] = system: SF-295 CNS
[42] = system: SF-539 CNS
[43] = system: SK-MEL-2 melanoma
[44] = system: SK-MEL-28 melanoma
[45] = system: SK-MEL-5 melanoma
[46] = system: SK-OV-3 ovarian
[47] = system: SN12C renal
[48] = system: SNB-19 CNS
[49] = system: SNB-75 CNS
[50] = system: SR leukemia
[51] = system: SW-620 colon
[52] = system: T-47D breast
[53] = system: TK-10 renal
[54] = system: U251 CNS
[55] = system: UACC-257 melanoma
[56] = system: UACC-62 melanoma
[57] = system: UO-31 renal

CC[C@@H](C)/C=C(C)/C=C/C(=O)c1c(O)c(-c2ccc(OC(=O)[C@@]34CC[C@@](C)(C(=O)O3)C4(C)C)cc2)cn(O)c1=O
GI50 [1]: 1550 nM
TGI [1]: 4.98 µM
GI50 [2]: 5.6 µM
TGI [2]: > 50 µM
GI50 [3]: 4.27 µM
TGI [3]: > 50 µM
GI50 [4]: 1320 nM
TGI [4]: 11.6 µM
GI50 [5]: 1600 nM
TGI [5]: 11.9 µM
GI50 [6]: 1120 nM
TGI [6]: > 50 µM
GI50 [7]: 15.2 µM
TGI [7]: > 50 µM
GI50 [8]: 839 nM
TGI [8]: > 50 µM
GI50 [9]: 2810 nM
TGI [9]: > 50 µM
GI50 [10]: 3.65 µM
TGI [10]: > 50 µM
GI50 [11]: 1470 nM
TGI [11]: > 50 µM
GI50 [12]: 1170 nM
TGI [12]: > 50 µM
GI50 [13]: 841 nM
TGI [13]: 2400 nM
GI50 [14]: 2050 nM
TGI [14]: > 50 µM
GI50 [15]: 2840 nM
TGI [15]: > 50 µM
GI50 [16]: 3.33 µM
TGI [16]: > 50 µM
GI50 [17]: 21.2 µM
TGI [17]: > 50 µM
GI50 [18]: 1720 nM
TGI [18]: 41.4 µM
GI50 [19]: 1570 nM
TGI [19]: > 50 µM
GI50 [20]: 3.85 µM
TGI [20]: > 50 µM
GI50 [21]: 961 nM
TGI [21]: > 50 µM
GI50 [22]: 1060 nM
TGI [22]: 2490 nM
GI50 [23]: 1500 nM
TGI [23]: > 50 µM
GI50 [24]: 1820 nM
TGI [24]: > 50 µM
GI50 [25]: 1830 nM
TGI [25]: > 50 µM
GI50 [26]: 2460 nM
TGI [26]: > 50 µM
GI50 [27]: 1040 nM
TGI [27]: > 50 µM
GI50 [28]: 1390 nM
TGI [28]: > 50 µM
GI50 [29]: 2410 nM
TGI [29]: > 50 µM
GI50 [30]: 1280 nM
TGI [30]: 7.56 µM
GI50 [31]: 1730 nM
TGI [31]: > 50 µM
GI50 [32]: 1460 nM
TGI [32]: 10 µM
GI50 [33]: 1040 nM
TGI [33]: > 50 µM
GI50 [34]: 1230 nM
TGI [34]: > 50 µM
GI50 [35]: 2790 nM
TGI [35]: > 50 µM
GI50 [36]: 1760 nM
TGI [36]: > 50 µM
GI50 [37]: 20.4 µM
TGI [37]: > 50 µM
GI50 [38]: 2490 nM
TGI [38]: > 50 µM
GI50 [39]: 1810 nM
TGI [39]: > 50 µM
GI50 [40]: 888 nM
TGI [40]: 6.6 µM
GI50 [41]: 1990 nM
TGI [41]: 26.9 µM
GI50 [42]: 1300 nM
TGI [42]: 6.1 µM
GI50 [43]: 15.6 µM
TGI [43]: > 50 µM
GI50 [44]: 2510 nM
TGI [44]: > 50 µM
GI50 [45]: 1400 nM
TGI [45]: 4.63 µM
GI50 [46]: 7.48 µM
TGI [46]: > 50 µM
GI50 [47]: 2470 nM
TGI [47]: > 50 µM
GI50 [48]: 2660 nM
TGI [48]: > 50 µM
GI50 [49]: 4.34 µM
TGI [49]: > 50 µM
GI50 [50]: 1320 nM
TGI [50]: 7.4 µM
GI50 [51]: 2430 nM
TGI [51]: > 50 µM
GI50 [52]: 1940 nM
TGI [52]: > 50 µM
GI50 [53]: 1990 nM
TGI [53]: > 50 µM
GI50 [54]: 1640 nM
TGI [54]: > 50 µM
GI50 [55]: 1800 nM
TGI [55]: 36 µM
GI50 [56]: 1160 nM
TGI [56]: 2700 nM
GI50 [57]: 1320 nM
TGI [57]: 7.89 µM
